The values below come from patent publication US20090082371A1, “Treatment of Viral Disease and Cancer With Nf-kappaB Inhibitors” (priority 2005, published 2009).

A word on the inhibition: it is the share of the control response that was lost under treatment. Low values mean little suppression, high ones strong suppression.

The structures appear in SMILES notation.

The subject of data set [1] is VSV-G-enveloped HIV-Luciferase viruses (HIV-1).
For data set [2], the system named is retrovirus expressing GFP. Conditions: 293T cells, tested dosages, two days after infection.
Source text: 293T human embryonic kidney cells were infected with the GFP-retrovirus. […] Two days later, the cells were photographed with a digital camera mounted on a microscope. […] Data represent the mean±standard deviation of three independent experiments.
Two days later, the number of infected cells from two separate experiments was counted.
Data set [3] concerns HepG2 human liver cancer cells. The data set can be described thus: Cancer cell growth, viable cell count by trypan blue exclusion. Format: cell-based. Particulars: HepG2, 5 μM. From the text: (§1) The tested cells include LNCAP human prostate cancer cells, MDA-MB-468 human breast cancer cells, H1299 human lung cancer cells, AGS human gastric cancer cells, HepG2 human liver cancer cells, PANC-1 human pancreatic carcinoma cells, Jurkat human acute T-cell leukemia cells, A431 human epidermoid carcinoma cells, U251 human glioma cells, NBT-II human bladder cancer cells, and Hela human cervical cancer cells.

In data set [4] the test system is MDA-MB-468 human breast cancer cells. The data set is described as above. Format: cell-based. Conditions: MDA-MB-468, 5 μM.
Source text: as §1

The subject of data set [5] is NBT-II human bladder cancer cells. The description is as above. Format: cell-based. Conditions: for inhibition at 5 µM: Homo sapiens, 144 h.
Source text: as §1

In data set [6] the test system is PANC-1 human pancreatic carcinoma cells. Described as above. Format: cell-based. Conditions: PANC-1, 5 μM.
Source text: as §1

The test system of data set [7] is Hela human cervical cancer cells. Described as above. In kind it is cell-based. Conditions: for inhibition at 5 µM: Homo sapiens, 144 h; for inhibition at 5 µM / % inhibition of cell growth: day 6, vs untreated cells.
Source text: as §1

In data set [8] the test system is LNCAP human prostate cancer cells. The description is as above. In kind it is cell-based.
Source text: as §1

Data set [9] deals with U251 human glioma cells. Described as above. Format: cell-based. Particulars: U251, 5 μM; for cell apoptosis: day 6.
Source text: as §1

Data set [10] deals with A431 human epidermoid carcinoma cells. Described as above. Conditions: A431, 5 μM; for cell apoptosis: day 6; for % inhibition of cell growth: day 6, vs untreated cells. In kind it is cell-based.
Source text: as §1

For data set [11], the system named is H1299 human lung cancer cells. Described as above. In kind it is cell-based. Conditions: H1299, 5 μM.
Source text: as §1

In data set [12] the test system is AGS human gastric cancer cells. Described as above. Particulars: for inhibition at 5 µM: Homo sapiens, 144 h. In kind it is cell-based.
Source text: as §1

Data set [13] concerns Jurkat human acute T-cell leukemia cells. Described as above. In kind it is cell-based. Particulars: 5 μM.
Source text: as §1

Data set [14] relates to HT29 cells. The description is as above. Format: cell-based. Particulars: HT29, 5 μM.
Data set [15] deals with cells listed in Table 1. The data set can be described thus: Cancer cell growth, panel of cells listed in Table 1. In kind it is cell-based, human. Particulars: 5 μM, day 6, vs untreated cells.
Source text: as §1

Setting [16] is: Homo sapiens, 144 h, day 6, vs untreated cells.
Where [17] appears, read: day 6, about 4×10^4 cells at start.
The mark [18] stands for this setting: 5 μM, day 6, about 4×10^4 cells at start.
Where [19] appears, read: 5 μM, day 6, vs untreated cells.

For `O=C(/C=C/c1ccc(O)c(O)c1)OCCc1ccccc1` [cape, reference compound], in [1], the cell deaths observed entry was “no obvious cell deaths”; the “inhibition of HIV-1 viral infection and replication (HIV-1-induced Luciferase activity)” value (shortened to “inhibition … (HIV-1-induced Luciferase activity)”) is reported as “showed inhibition”.

In the case of `C=CCOc1ccc(CCNc2ncnc3ccc(N)cc23)cc1`, in [1], the cell deaths observed result was “no obvious cell deaths”; the “inhibition … (HIV-1-induced Luciferase activity)” value was “showed inhibition”. Moreover, in data set [2], the cell deaths observed result is “no obvious cell deaths”.

As to `Cc1ccc(S(=O)(=O)/C=C/C#N)cc1` [BAY 11-7082, (E)3-[(4-Methylphenyl)sulfonyl]-2-propenenitrile, reference compound], the cell apoptosis result in data set [3] (day 6) is reported as “completely cell apoptosis”; in [6] (day 6) it was “completely cell apoptosis”; in data set [8] (5 μM, day 6) it was “completely cell apoptosis”; in [9], “completely cell apoptosis”; in [10] it was “completely cell apoptosis”; in [11] (day 6), “completely cell apoptosis”. For the same compound, the inhibition at 5 µM in [4] (setting [16]) is 9 to 12%; in data set [5] (day 6, vs untreated cells), 9 to 12%; in data set [7], 9 to 12%; in [12] (day 6, vs untreated cells), approximately 90%.

In the case of `COc1ccc([C@@]23Oc4cc(OC)cc(OC)c4[C@]2(O)[C@H](O)[C@H](C(=O)N(C)C)[C@H]3c2ccccc2)cc1` [rocaglamide, reference compound], the inhibition at 5 µM was 9 to 40% in data set [3] (setting [16]); 9 to 40% in data set [5] (day 6, vs untreated cells); 9 to 40% in [6] (setting [16]); 9 to 40% in data set [7]; approximately 70% in [8] (setting [16]); approximately 80% in [11] (Homo sapiens, NCI-H1299, 144 h, day 6, vs untreated cells). The compound also registered an inhibition at 5 µM in data set [12] (day 6, vs untreated cells) of approximately 50%. The cell apoptosis entry in data set [4] (day 6), in [9] and in [10] was “completely cell apoptosis” each time. Further, the cell deaths observed entry in data set [1] is “no obvious cell deaths”. The “inhibition … (HIV-1-induced Luciferase activity)” value in data set [1] is recorded as “showed inhibition”.

In the case of `Nc1ccc2ncnc(NCCc3ccc(OCc4ccccc4)cc3)c2c1`, in data set [1], the cell deaths observed result is given as “no obvious cell deaths”; the “inhibition … (HIV-1-induced Luciferase activity)” value is “showed inhibition”. For the same compound, the cell deaths observed result in data set [2] is “no obvious cell deaths”.

Regarding `CC1=C(O)C(=O)C=C2C1=CC=C1[C@@]2(C)CC[C@@]2(C)[C@@H]3C[C@](C)(C(=O)O)CC[C@]3(C)CC[C@]12C` [celastrol, 3-hydroxy-24-nor-2-oxo-1(10),3,5,7-friedelatetraen-29-oic Acid, reference compound], the cell apoptosis entry in data set [13] (day 6) is “about 90%”. Further, in data set [1], the cell deaths observed result is given as “no obvious cell deaths”.

For `Nc1ccc2ncnc(NCCc3ccc(OCc4ccccn4)cc3)c2c1`, in data set [1], the cell deaths observed entry is given as “no obvious cell deaths”; the “inhibition … (HIV-1-induced Luciferase activity)” value was “showed inhibition”. Also, the cell deaths observed result in data set [2] is listed as “no obvious cell deaths”.

In the case of `Nc1ccc2ncnc(NCCc3ccc(Oc4ccccc4)cc3)c2c1`, the “Treated (cell number × 10^5)” value in data set [3] (setting [17]) was 0.8 ± 0.1 × 10^5; in data set [4] (setting [17]), 5.4 ± 0.1 × 10^5; in data set [5] (setting [18]), 2.7 ± 0.1 × 10^5; in [13] (setting [17]), 6.3 ± 0.4 × 10^5; in data set [6] (setting [17]), 1.9 ± 0.1 × 10^5; in data set [7] (setting [18]), 1.1 ± 0.1 × 10^5. Also, the “Treated (cell number × 10^5)” value in [8] (setting [18]) was 0.7 ± 0.2 × 10^5; in [9] (setting [17]), 7.2 ± 0.2 × 10^5; in data set [10] (setting [17]), 3.2 ± 0.2 × 10^5; in data set [11] (setting [17]), 3 ± 0.2 × 10^5; in data set [12] (setting [18]), 2.1 ± 0.1 × 10^5; in data set [14] (setting [17]), 1.9 ± 0.1 × 10^5. The “% inhibition of cell growth” value in data set [3] (day 6, vs untreated cells) worked out at 80%; in data set [4] (day 6, vs untreated cells), 10%; in data set [5] (setting [19]), 10%; in data set [13] (day 6, vs untreated cells), 28%; in data set [6] (day 6, vs untreated cells), 14%; in data set [7] (5 μM), 70%. In addition, the “% inhibition of cell growth” value is reported as 90% in data set [8] (setting [19]); 20% in data set [9] (day 6, vs untreated cells); 59% in data set [10]; 52% in data set [11] (day 6, vs untreated cells); 10% in data set [12] (setting [19]); 50% in data set [14] (day 6, vs untreated cells). Moreover, the cell deaths observed result in data set [1] and in data set [2] was “no obvious cell deaths” in each case. Moreover, the “inhibition … (HIV-1-induced Luciferase activity)” value in data set [1] is “showed inhibition”. The “inhibition of cell growth, range over the cancer cells of Table 1” value in data set [15] is listed as 10-90%.

Consider `COc1cc(O)c2c(c1)oc(=O)c1c3cc(O)c(O)cc3oc21` [7-Methoxy-5,11,12-trihydroxy-coumestan], for which the “% inhibition of cell growth” value in data set [3] (day 6, vs untreated cells) is on record as approximately 25%; in data set [4] (day 6, vs untreated cells), approximately 10%; in data set [7] (5 μM), approximately 29%; in [10], “about 51%”; in data set [11] (day 6, vs untreated cells), approximately 31%.
